In patent US8148391B2 (Cephalon, Inc., priority 2006, dated 2012) one finds IC50 data, which are given here for 18 compounds.

Assay [1] concerns the target T1, baculovirus-expressed ALK (Homo sapiens, UniProt Q9UM73).
T1 construct: host or cells: baculovirus expression system
The experiment in a line: ALK Kinase Assay (ELISA-type, time-resolved fluorescence). The assay is classed as biochemical. The following applies: ALK kinase inhibition, 1 μM ATP (Km level); read-out: ALK Activity. In a few lines:
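Plates coated with phospholipase C-γ substrate (10 μg/mL in TBS); reaction started with 30 ng/ml ALK and run 15 min at 37° C. Phosphorylated substrate detected with Eu-N1-labeled PT66 antibody. IC50 from sigmoidal variable-slope fit of percent inhibition vs log concentration.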

Assay [2] deals with T2, c-Met (cytoplasmic domain) (Homo sapiens, UniProt P08581).
T2 construct: 10 ng/mL c-Met (cytoplasmic domain, Invitrogen Corporation #PV3143); purchased Invitrogen Corporation PV3143
T2 sequence (P08581 956-1390 limits assumed): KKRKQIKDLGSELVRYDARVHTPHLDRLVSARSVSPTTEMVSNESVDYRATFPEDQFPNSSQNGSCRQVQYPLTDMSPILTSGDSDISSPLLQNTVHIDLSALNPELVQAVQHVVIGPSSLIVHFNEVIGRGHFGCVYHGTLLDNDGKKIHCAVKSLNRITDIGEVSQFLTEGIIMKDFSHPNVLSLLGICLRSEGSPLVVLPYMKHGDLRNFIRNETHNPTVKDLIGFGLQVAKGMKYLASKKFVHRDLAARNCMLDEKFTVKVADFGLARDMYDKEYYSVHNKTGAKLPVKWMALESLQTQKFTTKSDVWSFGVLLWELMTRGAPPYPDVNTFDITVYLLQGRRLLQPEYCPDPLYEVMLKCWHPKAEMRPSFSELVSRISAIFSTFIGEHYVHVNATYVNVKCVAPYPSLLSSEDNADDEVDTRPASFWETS
The experiment in a line: c-Met Kinase Assay (same methods as for ALK, with modifications). The following applies: c-Met kinase inhibition, 1 μM ATP (Km level); read-out: cMet Activity. It is filed as biochemical. The procedure, abridged: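 Plates were coated with phospholipase C-γ substrate (10 μg/mL) in TBS, and the reaction was started with 10 ng/mL c-Met cytoplasmic domain and run 15 min at 37 °C. Phosphoproduct was detected with Eu-N1-labelled PT66 antibody. IC50 came from a variable-slope sigmoidal fit of percent inhibition vs log concentration.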

T1 sequence (Q9UM73 19-1620): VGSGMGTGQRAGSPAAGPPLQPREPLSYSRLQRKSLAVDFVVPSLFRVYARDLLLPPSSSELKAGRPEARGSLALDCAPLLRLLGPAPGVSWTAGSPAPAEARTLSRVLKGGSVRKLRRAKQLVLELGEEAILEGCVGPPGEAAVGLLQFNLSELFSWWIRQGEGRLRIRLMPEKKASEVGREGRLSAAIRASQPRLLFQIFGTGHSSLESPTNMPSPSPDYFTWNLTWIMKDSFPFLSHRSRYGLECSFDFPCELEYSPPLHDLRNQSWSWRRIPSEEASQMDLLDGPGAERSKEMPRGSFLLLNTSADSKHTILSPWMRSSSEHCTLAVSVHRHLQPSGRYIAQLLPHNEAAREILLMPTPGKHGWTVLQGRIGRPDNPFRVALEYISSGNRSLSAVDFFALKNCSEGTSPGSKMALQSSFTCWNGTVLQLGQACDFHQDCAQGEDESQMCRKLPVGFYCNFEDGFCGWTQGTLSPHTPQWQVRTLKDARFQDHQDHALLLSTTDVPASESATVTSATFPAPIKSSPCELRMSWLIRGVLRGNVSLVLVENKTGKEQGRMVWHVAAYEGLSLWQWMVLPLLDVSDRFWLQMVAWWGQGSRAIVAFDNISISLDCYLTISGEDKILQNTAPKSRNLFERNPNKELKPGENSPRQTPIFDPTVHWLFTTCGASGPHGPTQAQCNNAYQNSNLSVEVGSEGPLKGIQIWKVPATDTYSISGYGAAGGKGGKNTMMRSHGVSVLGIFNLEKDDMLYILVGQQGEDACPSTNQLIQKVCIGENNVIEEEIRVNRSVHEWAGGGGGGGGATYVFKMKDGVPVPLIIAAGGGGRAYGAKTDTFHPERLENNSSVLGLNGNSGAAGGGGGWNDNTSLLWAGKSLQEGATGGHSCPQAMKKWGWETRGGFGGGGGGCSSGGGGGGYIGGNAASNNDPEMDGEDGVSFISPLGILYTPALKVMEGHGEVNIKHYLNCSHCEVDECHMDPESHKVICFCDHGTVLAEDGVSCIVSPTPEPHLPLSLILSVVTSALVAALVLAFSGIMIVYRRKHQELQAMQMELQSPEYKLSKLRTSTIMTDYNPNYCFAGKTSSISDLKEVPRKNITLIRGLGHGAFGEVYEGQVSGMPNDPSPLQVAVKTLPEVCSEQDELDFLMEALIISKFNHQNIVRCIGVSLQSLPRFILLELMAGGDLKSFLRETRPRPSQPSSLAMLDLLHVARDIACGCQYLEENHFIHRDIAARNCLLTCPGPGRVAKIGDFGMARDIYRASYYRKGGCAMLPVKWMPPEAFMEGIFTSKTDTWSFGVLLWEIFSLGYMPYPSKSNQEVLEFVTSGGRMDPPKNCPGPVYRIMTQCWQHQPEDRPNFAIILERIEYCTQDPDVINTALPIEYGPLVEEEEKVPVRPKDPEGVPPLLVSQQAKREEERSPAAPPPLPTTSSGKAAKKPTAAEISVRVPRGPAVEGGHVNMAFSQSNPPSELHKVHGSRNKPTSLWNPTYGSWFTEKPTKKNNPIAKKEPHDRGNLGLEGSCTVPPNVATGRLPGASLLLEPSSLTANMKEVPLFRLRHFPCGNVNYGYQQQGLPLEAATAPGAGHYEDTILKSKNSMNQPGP

As for `COCCN1CCN(C)c2ccc(Nc3ncc(Cl)c(N[C@@H]4CCCC[C@H]4NS(C)(=O)=O)n3)cc2C1` [Example 430, N-((1R,2R)-2-{5-Chloro-2-[4-(2-methoxy-ethyl)-1-methyl-2,3,4,5-tetrahydro-1H-benzo[e][1,4]diazepin-7-ylamino]-pyrimidin-4-ylamino}-cyclohexyl)-methanesulfonamide], the IC50 in assay [1] is under 0.1 µM; in assay [2], 1 to 10 µM.
For `CCN1CCN(CC)c2cc(Nc3ncc(Cl)c(Nc4ccccc4NS(C)(=O)=O)n3)c(Cl)cc2C1` [Example 431, N-{2-[5-Chloro-2-(7-chloro-1,4-diethyl-2,3,4,5-tetrahydro-1H-benzo[e][1,4]diazepin-8-ylamino)-pyrimidin-4-ylamino]-phenyl}-methanesulfonamide] the same measures were under 0.1 µM and 1 to 10 µM.
For `CNC(=O)c1ccccc1Nc1nc(Nc2ccc3c(c2)CN(CCOC)CCN3C)ncc1Cl` [Example 432, 2-{5-Chloro-2-[4-(2-methoxy-ethyl)-1-methyl-2,3,4,5-tetrahydro-1H-benzo[e][1,4]diazepin-7-ylamino]-pyrimidin-4-ylamino}-N-methyl-benzamide] the same measures were under 0.1 µM and under 0.1 µM.
For `CCN1CCc2ccc(Nc3ncc(Cl)c(N[C@@H]4CCCC[C@H]4NS(C)(=O)=O)n3)cc2CC1` [Example 441, N-{(1R,2R)-2-[5-Chloro-2-(3-ethyl-2,3,4,5-tetrahydro-1H-benzo[d]azepin-7-ylamino)-pyrimidin-4-ylamino]-cyclohexyl}methanesulfonamide] the same measures were under 0.1 µM and 0.1 to 1 µM.
As to `CCN1CCc2ccc(Nc3ncc(Cl)c(Nc4ccc(N5CCOCC5)cc4OC)n3)cc2CC1` [Example 442, 5-Chloro-N*2*-(3-ethyl-2,3,4,5-tetrahydro-1H-benzo[d]azepin-7-yl)-N*4*-(2-methoxy-4-morpholin-4-yl-phenyl)-pyrimidine-2,4-diamine], the IC50 in assay [1] is under 0.1 µM; in assay [2], 1 to 10 µM.
For `CCN1CCc2ccc(Nc3ncc(Cl)c(Nc4ccc(N5CCOCC5)cc4)n3)cc2CC1` [Example 443, 5-Chloro-N*2*-(3-ethyl-2,3,4,5-tetrahydro-1H-benzo[d]azepin-7-yl)-N*4*-(4-morpholin-4-yl-phenyl)-pyrimidine-2,4-diamine] the same measures were under 0.1 µM and 1 to 10 µM.
For the compound `CCN1CCc2ccc(Nc3ncc(Cl)c(Nc4cccc(N5CCOCC5)c4)n3)cc2CC1` [Example 444, 5-Chloro-N*2*-(3-ethyl-2,3,4,5-tetrahydro-1H-benzo[d]azepin-7-yl)-N*4*-(3-morpholin-4-yl-phenyl)-pyrimidine-2,4-diamine], the values for the IC50 in assay [1] and in assay [2] were under 0.1 µM and 1 to 10 µM, respectively.
For `CCN1CCc2ccc(Nc3ncc(Cl)c(N[C@@H]4CCCC[C@H]4NC(C)=O)n3)cc2CC1` [Example 445, N-{(1R,2R)-2-[5-Chloro-2-(3-ethyl-2,3,4,5-tetrahydro-1H-benzo[d]azepin-7-ylamino)-pyrimidin-4-ylamino]-cyclohexyl}-acetamide] the same measures were under 0.1 µM and under 0.1 µM.
With `CCN1CCc2ccc(Nc3ncc(Cl)c(N[C@@H]4CCCC[C@H]4NC(=O)C(F)(F)F)n3)cc2CC1` [Example 446, N-{(1R,2R)-2-[5-Chloro-2-(3-ethyl-2,3,4,5-tetrahydro-1H-benzo[d]azepin-7-ylamino)-pyrimidin-4-ylamino]-cyclohexyl}-2,2,2-trifluoro-acetamide], the results for the IC50 in assay [1] and in assay [2] were under 0.1 µM and 0.1 to 1 µM, respectively.
For `CCN1CCc2ccc(Nc3ncc(Cl)c(N[C@@H]4CCCC[C@H]4NC(=O)N(C)C)n3)cc2CC1` [Example 447, 3-{(1R,2R)-2-[5-Chloro-2-(3-ethyl-2,3,4,5-tetrahydro-1H-benzo[d]azepin-7-ylamino)-pyrimidin-4-ylamino]-cyclohexyl}-1,1-dimethyl-urea] the same measures were 0.1 to 1 µM and 0.1 to 1 µM.
For `CNC(=O)c1ccccc1Nc1nc(Nc2ccc3c(c2)CCN(C[C@@H](O)C(F)(F)F)CC3)ncc1Cl` [Example 448, 2-{5-Chloro-2-[3-((R)-3,3,3-trifluoro-2-hydroxy-propyl)-2,3,4,5-tetrahydro-1H-benzo[d]azepin-7-ylamino]-pyrimidin-4-ylamino}-N-methyl-benzamide] the same measures were under 0.1 µM and under 0.1 µM.
On to `CS(=O)(=O)N[C@@H]1CCCC[C@H]1Nc1nc(Nc2ccc3c(c2)CCN(C[C@@H](O)C(F)(F)F)CC3)ncc1Cl` [Example 449, N-((1R,2R)-2-{5-Chloro-2-[3-((R)-3,3,3-trifluoro-2-hydroxy-propyl)-2,3,4,5-tetrahydro-1H-benzo[d]azepin-7-ylamino]-pyrimidin-4-ylamino}-cyclohexyl)-methanesulfonamide], for which the IC50 in assay [1] is under 0.1 µM; in assay [2], 0.1 to 1 µM.
For `COCCN1CCc2ccc(Nc3ncc(Cl)c(N[C@@H]4CCCC[C@H]4NC(=O)C(F)(F)F)n3)cc2CC1` [Example 450, N-((1R,2R)-2-{5-Chloro-2-[3-(2-methoxy-ethyl)-2,3,4,5-tetrahydro-1H-benzo[d]azepin-7-ylamino]-pyrimidin-4-ylamino}-cyclohexyl)-2,2,2-trifluoro-acetamide] the same measures were under 0.1 µM and 0.1 to 1 µM.
Take `COCCN1CCc2ccc(Nc3ncc(Cl)c(N[C@@H]4CCCC[C@H]4N)n3)cc2CC1` [Example 451, N*4*-((1R,2R)-2-Amino-cyclohexyl)-5-chloro-N*2*-[3-(2-methoxy-ethyl)-2,3,4,5-tetrahydro-1H-benzo[d]azepin-7-yl]-pyrimidine-2,4-diamine]: the IC50 in assay [1] is 0.1 to 1 µM; in assay [2], 1 to 10 µM.
As for `COCCN1CCc2ccc(Nc3ncc(Cl)c(N[C@@H]4CCCC[C@H]4NS(=O)(=O)CC(F)(F)F)n3)cc2CC1` [Example 452, 2,2,2-Trifluoro-ethanesulfonic acid ((1R,2R)-2-{5-chloro-2-[3-(2-methoxy-ethyl)-2,3,4,5-tetrahydro-1H-benzo[d]azepin-7-ylamino]-pyrimidin-4-ylamino}-cyclohexyl)-amide], the figures for the IC50 in assay [1] and in assay [2] were under 0.1 µM and 1 to 10 µM, respectively.
For `CCS(=O)(=O)N[C@@H]1CCCC[C@H]1Nc1nc(Nc2ccc3c(c2)CCN(CCOC)CC3)ncc1Cl` [Example 453, Ethanesulfonic acid ((1R,2R)-2-{5-chloro-2-[3-(2-methoxy-ethyl)-2,3,4,5-tetrahydro-1H-benzo[d]azepin-7-ylamino]-pyrimidin-4-ylamino}-cyclohexyl)-amide] the same measures were under 0.1 µM and 1 to 10 µM.
As to `COCCN1CCc2ccc(Nc3ncc(Cl)c(N[C@@H]4CCCC[C@H]4NS(=O)(=O)C4CC4)n3)cc2CC1` [Example 454, Cyclopropanesulfonic acid ((1R,2R)-2-{5-chloro-2-[3-(2-methoxy-ethyl)-2,3,4,5-tetrahydro-1H-benzo[d]azepin-7-ylamino]-pyrimidin-4-ylamino}-cyclohexyl)-amide], the figures for the IC50 in assay [1] and in assay [2] were 0.1 to 1 µM and 1 to 10 µM, respectively.
For `CNC(=O)c1cccc(F)c1Nc1nc(Nc2ccc3c(c2)C2CCC(C3)N2CCOC)ncc1Cl` (stereo not drawn) [Example 456, 2-{5-Chloro-2-[12-(2-methoxy-ethyl)-12-aza-tricyclo[7.2.1.0(2,7)]dodeca-2(7),3,5-trien-4-ylamino]-pyrimidin-4-ylamino}-3-fluoro-N-methyl-benzamide] the same measures were under 0.1 µM and under 0.1 µM.
